According to US20160222056A1, “SUBSTITUTED PHENYLALANINE DERIVATIVES” (BAYER PHARMA AKTIENGESELLSCHAFT, priority 2013, published 2016):
pIC50: −log10 of the molar value. Where a name gives a salt, the structure may show the parent alone. Read-outs that look alike come from different tables or passages of the source.

Columns and labels:
[1] = tested on: human and animal plasma; experiment: Anticoagulatory activity: activated partial thromboplastin time (aPTT) in plasma; type: biochemical; details: in vitro in plasma, C.K. Prest kit, 37° C. for 3 minutes; plasma species of Table B not stated
Protocol: The anticoagulatory activity of the test substances is determined in vitro in human and animal plasma (for example mouse, rat, rabbit, pig and dog plasma). To this end, blood is drawn off in a mixing ratio of sodium citrate/blood of 1:9 using a 0.11 molar sodium citrate solution as receiver. Immediately after the blood has been drawn off, it is mixed thoroughly and centrifuged at about 4000 g for 15 minutes. The supernatant is pipetted off.
The activated partial thromboplastin time (aPTT) is determined in the presence of varying concentrations of test substance or the corresponding solvent using a commercial test kit (C.K. Prest from Diagnostica Stago). The test compounds are incubated with the plasma and the PTT reagent (cephalin, kaolin) at 37° C. for 3 minutes. Coagulation is then started by addition of 25 mM aqueous calcium chloride, and the time when coagulation occurs is determined. The concentration of test substance which brings about a 1.5-fold extension of the aPTT is determined.

[2] = target: T1, human factor XIa (Homo sapiens, UniProt P03951); experiment: Measurement of FXIa inhibition (fluorogenic peptide substrate); type: biochemical
T1 construct: purchased Kordia
Protocol: To determine the factor XIa inhibition of the substances according to the invention, a biochemical test system is used which utilizes the reaction of a peptidic factor XIa substrate to determine the enzymatic activity of human factor XIa. Here, factor XIa cleaves from the peptic factor XIa substrate the C-terminal aminomethylcoumarin (AMC), the fluorescence of which is measured. The determinations are carried out in microtitre plates.
Test substances are dissolved in dimethyl sulphoxide and serially diluted in dimethyl sulphoxide (3000 μM to 0.0078 μM; resulting final concentrations in the test: 50 μM to 0.00013 μM). In each case 1 μl of the diluted substance solutions are placed into the wells of white microtitre plates from Greiner (384 wells). Subsequently, the following are added successively: 20 μl of assay buffer (50 mmol/1 Tris buffer pH 7.4; 100 mmol/1 sodium chloride; 5 mmol/1 calcium chloride; 0.1% bovine serum albumin) and 20 μl of factor XIa from Kordia (0.45 nM in assay buffer). After 15 min of incubation, the enzyme reaction is started by addition of 20 μl of the factor XIa substrate Boc-Glu(OBzl)-Ala-Arg-AMC dissolved in assay buffer (10 μM in assay buffer) from Bachem, the mixture is incubated at room temperature (22° C.) for 30 min and fluorescence is then measured (excitation: 360 nm, emission: 460 nm). The measured emissions of the test batches with test substance are compared to those of control batches without test substance (only dimethyl sulphoxide instead of test substance in dimethyl sulphoxide), and the IC50 values are calculated from the concentration/activity relationships.

[3] = human factor XIa from Kordia, substrate Boc-Glu(OBzl)-Ala-Arg-AMC, 30 min at 22° C., read-out: IC50 (FXIa inhibition)

T1 sequence (P03951 388-625 limits assumed): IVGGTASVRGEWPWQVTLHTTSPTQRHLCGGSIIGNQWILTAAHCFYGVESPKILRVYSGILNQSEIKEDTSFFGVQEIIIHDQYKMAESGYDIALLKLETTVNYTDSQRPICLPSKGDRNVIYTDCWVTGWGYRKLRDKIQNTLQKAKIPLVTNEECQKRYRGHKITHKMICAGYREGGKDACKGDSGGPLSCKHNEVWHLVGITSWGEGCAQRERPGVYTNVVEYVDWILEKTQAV
T1 sequence (P03951 19-387 partner limits assumed): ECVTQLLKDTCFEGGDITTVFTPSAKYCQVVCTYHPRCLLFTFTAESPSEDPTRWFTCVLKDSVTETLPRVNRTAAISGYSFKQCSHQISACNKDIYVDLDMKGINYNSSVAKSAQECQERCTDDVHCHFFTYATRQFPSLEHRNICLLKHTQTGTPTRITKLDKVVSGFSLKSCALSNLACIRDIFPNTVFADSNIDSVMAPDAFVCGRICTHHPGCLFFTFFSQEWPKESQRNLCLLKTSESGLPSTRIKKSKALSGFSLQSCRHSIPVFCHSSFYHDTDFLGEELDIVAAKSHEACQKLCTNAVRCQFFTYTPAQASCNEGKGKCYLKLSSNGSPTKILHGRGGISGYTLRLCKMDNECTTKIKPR

Structure (SMILES)	pIC50 [2, 3]	pIC50 [2]	aPTT (concentration of test substance which brings about a 1.5-fold extension of the aPTT) [1] [µmol/L]
Cc1cc(C(=O)N2CC(C)NC(C)C2)ncc1-c1ccc(C[C@H](NC(=O)C2CCC(CN)CC2)C(=O)Nc2ccc(-c3nnn[nH]3)cc2)cc1 (stereo partly drawn) [Example 6, N-alpha-{[trans-4-(Aminomethyl)cyclohexyl]carbonyl}-4-{6-[(3,5-dimethylpiperazin-1-yl)carbonyl]-4-methylpyridin-3-yl}-N-[4-(1H-tetrazol-5-yl)phenyl]-L-phenylalaninamide hydrochloride]	8.39		0.04
Cc1cc(C(=O)NC2CC3CCC(C2)N3)ncc1-c1ccc(CC(NC(=O)C2CCC(CN)CC2)C(=O)Nc2ccc(-c3nnn[nH]3)cc2)cc1 [Example 10, N-alpha-{[trans-4-(Aminomethyl)cyclohexyl]carbonyl}-4-{6-[(1R,5S)-8-azabicyclo[3.2.1]oct-3-ylcarbamoyl]-4-methylpyridin-3-yl}-N-[4-(1H-tetrazol-5-yl)phenyl]-L-phenylalaninamide hydrochloride]	8.52		0.07
Cc1cc(C(=O)NCCCN(C)C)ncc1-c1ccc(C[C@H](NC(=O)[C@H]2CC[C@H](CN)CC2)C(=O)Nc2ccc(-c3nnn[nH]3)cc2)cc1 [Example 12, N-alpha-{[trans-4-(Aminomethyl)cyclohexyl]carbonyl}-4-(6-{[3-(dimethylamino)propyl]-carbamoyl}-4-methylpyridin-3-yl)-N-[4-(1H-tetrazol-5-yl)phenyl]-L-phenylalaninamide hydrochloride]	8.32		0.08
Cc1cc(C(=O)NC2CNCC(F)(F)C2)ncc1-c1ccc(C[C@H](NC(=O)[C@H]2CC[C@H](CN)CC2)C(=O)Nc2ccc(-c3nnn[nH]3)cc2)cc1 (stereo partly drawn) [Example 20, N-alpha-{[trans-4-(Aminomethyl)cyclohexyl]carbonyl}-4-{6-[(5,5-difluoropiperidin-3-yl)carbamoyl]-4-methylpyridin-3-yl}-N-[4-(1H-tetrazol-5-yl)phenyl]-L-phenylalaninamide hydrochloride]	8.41		0.13
CCN(CC)CCCNC(=O)c1cc(C)c(-c2ccc(C[C@H](NC(=O)[C@H]3CC[C@H](CN)CC3)C(=O)Nc3ccc(-c4nnn[nH]4)cc3)cc2)cn1 [Example 9, N-alpha-{[trans-4-(Aminomethyl)cyclohexyl]carbonyl}-4-(6-{[3-(diethylamino)propyl]-carbamoyl}-4-methylpyridin-3-yl)-N-[4-(1H-tetrazol-5-yl)phenyl]-L-phenylalaninamide hydrochloride]	8.28		0.05
CCN(CC)CCNC(=O)c1ccc(-c2ccc(C[C@H](NC(=O)[C@H]3CC[C@H](CN)CC3)C(=O)Nc3ccc(-c4nn[nH]n4)cc3)cc2)c(C)n1 [Example 3, N-alpha-{[trans-4-(Aminomethyl)cyclohexyl]carbonyl}-4-(6-{[2-(diethylamino)ethyl]carbamoyl}-2-methylpyridin-3-yl)-N-[4-(2H-tetrazol-5-yl)phenyl]-L-phenylalaninamide hydrochloride]	8.25		0.16
Cc1cc(C(=O)N2CCNC(=O)C2)ncc1-c1ccc(C[C@H](NC(=O)[C@H]2CC[C@H](CN)CC2)C(=O)Nc2ccc(-c3nnn[nH]3)cc2)cc1 [Example 32, N-alpha-{[trans-4-(Aminomethyl)cyclohexyl]carbonyl}-4-{4-methyl-6-[(3-oxopiperazin-1-yl)carbonyl]pyridin-3-yl}-N-[4-(1H-tetrazol-5-yl)phenyl]-L-phenylalaninamide hydrochloride]	8.74		

Now from value to molecule, other results behind:

pIC50 [2, 3]	pIC50 [2]	Structure (SMILES)	aPTT (concentration of test substance which brings about a 1.5-fold extension of the aPTT) [1] [µmol/L]
8.59		CCN(CC)C1CCC(NC(=O)c2cc(C)c(-c3ccc(C[C@H](NC(=O)[C@H]4CC[C@H](CN)CC4)C(=O)Nc4ccc(-c5nnn[nH]5)cc4)cc3)cn2)CC1 (stereo partly drawn) [Example 7, N-alpha-{[trans-4-(Aminomethyl)cyclohexyl]carbonyl}-4-(6-{[4-(diethylamino)cyclohexyl]-carbamoyl}-4-methylpyridin-3-yl)-N-[4-(1H-tetrazol-5-yl)phenyl]-L-phenylalaninamide hydrochloride]	0.04
8.26		Cc1nc(C(=O)NC2CCN(C)CC2)ccc1-c1ccc(C[C@H](NC(=O)[C@H]2CC[C@H](CN)CC2)C(=O)Nc2ccc(-c3nnn[nH]3)cc2)cc1 [Example 30, N-alpha-{[trans-4-(Aminomethyl)cyclohexyl]carbonyl}-4{-2-methyl-6-[(1-methylpiperidin-4-yl)carbamoyl]pyridin-3-yl}-N-[4-(1H-tetrazol-5-yl)phenyl]-L-phenylalaninamide hydrochloride]	
	8.35	Cc1nc(C(=O)N[C@@H]2CCN[C@H](C)C2)ccc1-c1ccc(C[C@H](NC(=O)[C@H]2CC[C@H](CN)CC2)C(=O)Nc2ccc(-c3nn[nH]n3)cc2)cc1 [Example 18, N-alpha-{[trans-4-(Aminomethyl)cyclohexyl]carbonyl}-4-(2-methyl-6-{[(2R,4R)-2-methylpiperidin-4-yl]carbamoyl}pyridin-3-yl)-N-[4-(2H-tetrazol-5-yl)phenyl]-L-phenylalaninamide hydrochloride]	0.12
8.89		Cc1nc(C(=O)N[C@@H]2CCNC2=O)ccc1-c1ccc(C[C@H](NC(=O)[C@H]2CC[C@H](CN)CC2)C(=O)Nc2ccc(-c3nn[nH]n3)cc2)cc1 [Example 26, N-alpha-{[trans-4-(Aminomethyl)cyclohexyl]carbonyl}-4-(2-methyl-6-{[(3R)-2-oxopyrrolidin-3-yl]carbamoyl}pyridin-3-yl)-N-[4-(2H-tetrazol-5-yl)phenyl]-L-phenylalaninamide hydrochloride]	0.22
8.35		Cc1nc(C(=O)N[C@@H]2CCN(C)C2)ccc1-c1ccc(C[C@H](NC(=O)[C@H]2CC[C@H](CN)CC2)C(=O)Nc2ccc(-c3nn[nH]n3)cc2)cc1 [Example 19, N-alpha-{[trans-4-(Aminomethyl)cyclohexyl]carbonyl}-4-(2-methyl-6-{[(3R)-1-methylpyrrolidin-3-yl]carbamoyl}pyridin-3-yl)-N-[4-(2H-tetrazol-5-yl)phenyl]-L-phenylalaninamide hydrochloride]	0.12
8.60		Cc1nc(C(=O)NC2CCC(O)CC2)ccc1-c1ccc(C[C@H](NC(=O)[C@H]2CC[C@H](CN)CC2)C(=O)Nc2ccc(-c3nn[nH]n3)cc2)cc1 (stereo partly drawn) [Example 22, N-alpha-{[trans-4-(Aminomethyl)cyclohexyl]carbonyl}-4-{6-[(4-hydroxycyclohexyl)carbamoyl]-2-methylpyridin-3-yl}-N-[4-(2H-tetrazol-5-yl)phenyl]-L-phenylalaninamide hydrochloride]	0.16
8.38		Cc1cc(C(=O)N2CCN(C)CC2)ncc1-c1ccc(C[C@H](NC(=O)[C@H]2CC[C@H](CN)CC2)C(=O)Nc2ccc(-c3nnn[nH]3)cc2)cc1 [Example 33, N-alpha-{[trans-4-(Aminomethyl)cyclohexyl]carbonyl}-4-{4-methyl-6-[(4-methylpiperazin-1-yl)carbonyl]pyridin-3-yl}-N-[4-(1H-tetrazol-5-yl)phenyl]-L-phenylalaninamide hydrochloride]	0.44
8.72		Cc1nc(C(=O)N[C@H]2CC[C@H](N)CC2)ccc1-c1ccc(C[C@H](NC(=O)[C@H]2CC[C@H](CN)CC2)C(=O)Nc2ccc(-c3nn[nH]n3)cc2)cc1 [Example 31, 4-{6-[(trans-4-Aminocyclohexyl)carbamoyl]-2-methylpyridin-3-yl}-N-alpha-{[trans-4-(aminomethyl)cyclohexyl]carbonyl}-N-[4-(2H-tetrazol-5-yl)phenyl]-L-phenylalaninamide hydrochloride]	
